Measured values reported in patent US9150581B2, “Nicotinic receptor compounds” (priority 2011, dated 2015).

Key:
mice [1] = experiment: Hypothermia (rectal temperature); assay type: in vivo, mouse; details: sc
Protocol: (§1) Interruptions of the photocell beams (two banks of eight cells each) were then recorded for the next 10 min. Data were expressed as number of photocell interruptions. Rectal temperature was measured by a thermistor probe (inserted 24 mm) and digital thermometer (Yellow Springs Instrument Co., Yellow Springs, Ohio). […] The difference in rectal temperature before and after treatment was calculated for each mouse. The ambient temperature of the laboratory varied from 21 to 24° C. from day to day.

mice [2] = experiment: Antagonism of nicotine antinociception, tail-flick; assay type: in vivo, mouse
Protocol: (§2) In the tail-flick method of D'Amour and Smith, (D'Amour, F. E.; Smith, D. L. J. Pharmacol. Exp. Ther. 1941, 72, 74-79), the tail is exposed to a heat lamp and the amount of time taken for the animal to move (flick) its tail away from the heat is recorded. […] Mice were placed into a 10-cm wide glass cylinder on a hot plate (Thermojust Apparatus) maintained at 55.0° C. Two control latencies at least 10 min apart were determined for each mouse. […] The reaction time was scored when the animal jumped or licked its paws. The mice were tested 5 min after subcutaneous (sc) injections of nicotinic ligands for the dose-response determination. Antinociceptive response was calculated as percentage of maximum possible effect (% MPE, where % MPE=[(test−control)/(maximum latency−control)×100]).
(§3) Nicotine was administered at a dose of 2.5 mg/kg, sc (an ED84 dose), and mice were tested 5 min later. ED50 and AD50 values with 95% confidence limits were determined.

mice [3] = experiment: Spontaneous activity (photocell activity cages); assay type: in vivo, mouse; details: sc
Protocol: as §1

mice [4] = experiment: Antagonism of nicotine antinociception, hot-plate; assay type: in vivo, mouse; details: before nicotine 2.5 mg/kg sc
Protocol: as §2, §3

mice [5] = experiment: Hot-plate test (antinociception); assay type: in vivo, mouse; details: sc
Protocol: as §2

α4β2 nAChR = α4β2 nAChR (Rattus norvegicus (Rat), UniProt P09483+P12390); experiment: Inhibition of [3H]epibatidine binding at the α4β2 nAChR in male rat cerebral cortex; details: read-out: αβ [3H]Epibatidine (Ki)
α4β2 nAChR, sequence (P09483 31-630 limits assumed): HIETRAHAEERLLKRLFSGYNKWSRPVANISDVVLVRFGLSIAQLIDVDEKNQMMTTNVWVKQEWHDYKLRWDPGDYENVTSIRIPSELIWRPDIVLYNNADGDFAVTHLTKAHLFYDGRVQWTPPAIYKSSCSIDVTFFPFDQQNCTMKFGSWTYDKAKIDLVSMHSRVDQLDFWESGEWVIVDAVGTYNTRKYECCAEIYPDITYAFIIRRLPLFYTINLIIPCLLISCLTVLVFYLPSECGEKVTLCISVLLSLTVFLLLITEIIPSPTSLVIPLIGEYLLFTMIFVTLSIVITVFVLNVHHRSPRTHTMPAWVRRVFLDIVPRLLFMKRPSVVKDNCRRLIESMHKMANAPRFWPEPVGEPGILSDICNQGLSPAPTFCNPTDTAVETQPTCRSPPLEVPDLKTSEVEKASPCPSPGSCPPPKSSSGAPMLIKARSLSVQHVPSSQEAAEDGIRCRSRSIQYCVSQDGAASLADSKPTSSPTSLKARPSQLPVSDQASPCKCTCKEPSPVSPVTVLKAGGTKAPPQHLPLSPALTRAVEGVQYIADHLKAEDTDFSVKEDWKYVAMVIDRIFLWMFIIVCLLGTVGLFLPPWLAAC
α4β2 nAChR, sequence (P12390 25-500 limits assumed): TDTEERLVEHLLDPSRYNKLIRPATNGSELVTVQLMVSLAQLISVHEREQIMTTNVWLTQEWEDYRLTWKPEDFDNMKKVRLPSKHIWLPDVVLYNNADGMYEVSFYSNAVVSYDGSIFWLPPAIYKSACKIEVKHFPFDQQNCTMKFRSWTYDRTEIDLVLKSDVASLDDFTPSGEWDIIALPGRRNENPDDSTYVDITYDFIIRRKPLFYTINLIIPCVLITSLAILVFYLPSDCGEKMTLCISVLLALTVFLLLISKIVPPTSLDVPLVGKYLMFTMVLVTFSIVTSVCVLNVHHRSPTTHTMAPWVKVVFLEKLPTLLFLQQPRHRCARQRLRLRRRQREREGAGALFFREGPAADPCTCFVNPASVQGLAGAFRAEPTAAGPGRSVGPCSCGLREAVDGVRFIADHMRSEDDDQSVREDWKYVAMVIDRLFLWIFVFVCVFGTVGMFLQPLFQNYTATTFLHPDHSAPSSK

mice [6] = experiment: Tail-flick test (antinociception); assay type: in vivo, mouse; details: sc
Protocol: as §2

α7 nAChR = α7 nAChR (Rattus norvegicus (Rat), UniProt Q05941); assay type: binding; details: read-out: α7 [125I]iodoMLA (Ki)
α7 nAChR, sequence (Q05941 23-502 limits assumed): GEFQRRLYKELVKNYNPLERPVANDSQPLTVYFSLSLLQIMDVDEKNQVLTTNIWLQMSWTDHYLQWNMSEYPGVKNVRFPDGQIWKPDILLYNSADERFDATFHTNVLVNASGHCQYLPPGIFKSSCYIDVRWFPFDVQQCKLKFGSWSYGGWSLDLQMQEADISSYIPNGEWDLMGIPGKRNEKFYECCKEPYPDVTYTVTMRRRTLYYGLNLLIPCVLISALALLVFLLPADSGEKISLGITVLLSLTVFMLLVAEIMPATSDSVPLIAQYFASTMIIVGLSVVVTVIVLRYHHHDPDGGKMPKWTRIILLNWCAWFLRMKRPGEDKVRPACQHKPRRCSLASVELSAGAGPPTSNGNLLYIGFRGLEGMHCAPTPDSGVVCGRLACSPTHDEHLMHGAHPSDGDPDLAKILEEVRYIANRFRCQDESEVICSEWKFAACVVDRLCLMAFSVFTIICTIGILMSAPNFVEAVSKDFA

Row | Substance | ED50 Hypothermia (mice [1]) [mg/kg] | Antagonism Tail-Flick, % at dose (mice [2]; @ 500 μg/kg, before nicotine 2.5 mg/kg sc) [% @ 500] | ED50 Spontaneous Activity (mice [3]) [mg/kg] | Antagonism Hot-Plate, % at dose (mice [4]; @ 500 μg/kg) [% @] | ED50 Hot-Plate (mice [5]; tested 5 min after injection) [mg/kg] | Ki (α4β2 nAChR) [nM] | ED50 Tail-Flick (mice [6]; tested 5 min after injection) [mg/kg] | Ki (α7 nAChR) [nM] | AD50 Tail-Flick (mice [2]; mice pretreated sc 10 min before nicotine 2.5 mg/kg sc) [mg/kg] | Antagonism Hot-Plate, % at dose (mice [4]; @ 2000 μg/kg) [% @] | Hot-Plate, % effect at dose (mice [5]; @ 10 mg/kg) [% @ 10] | Tail-Flick, % effect at dose (mice [6]; @ 10 mg/kg) [% @ 10]
1 | 2-exo-2-Fluoro-3-(3′-benzamide)deschloroepibatidine Hydrochloride [RTI-7527-169] | 1.7 | 10 | 1 | 20 | 3.6 | 0.36 ± 0.088 | 5.6 | 870 |  |  |  | 
2 | 2-exo-2-Fluoro-3-(4′-benzamide)deschloroepibatidine Hydrochloride [RTI-7527-168] | 4.2 |  | 3.5 |  |  | 0.12 ± 0.021 |  | 1870 | 0.009 | 1 | 60 | 16
